Literature values as cited in patent EP4643845A1, “COSMETIC COMPOSITION” (Shiseido Company, Ltd., priority 2022, dated 2024).
*1 amine or outer side, *2 acyl side, *3 side chain or, on linkers, in order; H or OH if unused. Where a SMILES comes first, the peptide text is derived from it. Bridges are numbered along the chain shown (N, C = ends). X1 = CC(C)CCCCCCCCCC(CC(=O)[*:1])O[*:2]

Settings: according to relevant reports

critical micelle concentration (CMC): 0.0003 % (mass fraction)
SMILES: CC(C)CCCCCCCCCC1CC(=O)NC(CCC(=O)O)C(=O)NC(CC(C)C)C(=O)NC(CC(C)C)C(=O)NC(C(C)C)C(=O)NC(CC(=O)O)C(=O)NC(CC(C)C)C(=O)NC(CC(C)C)C(=O)O1 (stereo not shown) [formula (1)] (ELLVDLL; linker N-C via X1; configuration not given here)
